# Measurements as given in PubChem BioAssay (NCI).
#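 Five compound concentrations were applied to cells in 96-well plates for 48 hours; endpoints were derived by simple linear interpolation of the resulting dose-response curve. The concentration for 50% growth inhibition is given as GI50. At the TGI there is no net growth.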
# Assays:
# Experiment in all cases: NCI anticancer screen, dose series, 48 h
# CCRF-CEM leukemia = system: CCRF-CEM leukemia
# A498 renal = system: A498 renal
# NCI-H460 lung = system: NCI-H460 lung
# OVCAR-5 ovarian = system: OVCAR-5 ovarian
# KM12 colon = system: KM12 colon
# UO-31 renal = system: UO-31 renal
# LOX IMVI melanoma = system: LOX IMVI melanoma
# 786-0 renal = system: 786-0 renal
# K-562 leukemia = system: K-562 leukemia
# RPMI-8226 leukemia = system: RPMI-8226 leukemia
Structure (SMILES),GI50 (CCRF-CEM leukemia) [µM],TGI (CCRF-CEM leukemia) [µM],GI50 (A498 renal) [µM],TGI (A498 renal) [µM],GI50 (NCI-H460 lung) [µM],TGI (NCI-H460 lung) [µM],GI50 (OVCAR-5 ovarian) [µM],TGI (OVCAR-5 ovarian) [µM],GI50 (KM12 colon) [µM],TGI (KM12 colon) [µM],GI50 (UO-31 renal) [µM],TGI (UO-31 renal) [µM],GI50 (LOX IMVI melanoma) [µM],TGI (LOX IMVI melanoma) [µM],GI50 (786-0 renal) [µM],TGI (786-0 renal) [µM],GI50 (K-562 leukemia) [µM],TGI (K-562 leukemia) [µM],GI50 (RPMI-8226 leukemia) [µM],TGI (RPMI-8226 leukemia) [µM]
O=C(Oc1ccc([N+](=O)[O-])cc1)N1CCC(C(O)(c2ccc3c(c2)OCO3)c2ccc3c(c2)OCO3)CC1,> 100,> 100,> 100,> 100,> 100,> 100,> 100,> 100,> 100,> 100,> 100,> 100,> 100,> 100,> 100,> 100,> 100,> 100,> 100,> 100
N#Cc1ccc(-n2cnc(NC(=O)[C@H]3CCN(C#N)C3)c2)cc1,1.03,> 100,2.03,4.76,2.35,> 34.7,3.3,> 100,1.58,11.8,0.546,4,1.27,> 100,2.42,9.11,2.67,> 100,1.71,7.46
C=C(CO)CC(O)c1ccccc1 (stereo not given),,> 100,,> 100,,> 100,,> 100,,> 100,,> 100,,> 100,,> 100,,> 100,,> 100
COc1ccc2[nH]cc(/C=C3\C(=O)Nc4ccccc43)c2c1,3.94,18.8,3.15,15.1,4.09,18.7,11.6,42,0.246,13,6.94,32.4,4.62,15.9,11.9,30.2,2.28,9.83,2.35,6.84
CCOC(=O)C(=Cc1ccc(Br)cc1)C(=O)OCC,0.838,7.34,2.18,5.14,2.37,5.73,2.66,6.52,1.76,3.66,1.57,3.34,0.793,2.24,2.01,3.85,2.49,> 100,0.27,1.32
O=S(=O)(Nc1ccc(Cl)c(C(F)(F)F)c1)c1ccc(-c2cnc(C3CC3)o2)cc1,0.285,> 25.1,0.0814,1.23,0.102,10,1.51,7.24,0.187,7.36,0.871,6.25,0.394,3.22,1.1,3.58,0.117,> 100,1.35,5.64
